The results in this text go back to the Deep4Chem optical property database.

This data set in a line: solvent given as SMILES.

In turn, `COc1cc2c(cc1-c1ccc(Cl)cc1)Cc1c3c(c4c(c1-2)-c1cc(OC)c(-c2ccc(Cl)cc2)cc1C4)C(=O)N(CCC(C)C)C3=O` yielded an absorption maximum (in C1CCOC1) of 406 nm.
`COc1ccc(-c2cc3oc(=O)cc(C)c3cc2-c2ccc(OC)c(OC)c2)cc1OC` had an absorption maximum (in C1CCOC1) of 346 nm.
Where the note is “in C1CCCCC1”, `COc1ccc(-c2ccc(-c3ccc(C#N)cc3)cc2)cc1` gave an absorption maximum of 305 nm.
On to `CCCCCCCCCC[n+]1cc2ccc3c[n+](CCCCCCCCCC)cc4ccc(c1)c2c34`, for which the absorption maximum (in CC#N) was 418 nm.
As for `O=C1c2cccc3cc4ccccc4c(c23)C(=O)N1Cc1ccccn1`, the absorption maximum runs as follows: (in C1CCOC1) 432 nm; (in CCCCCC) 427 nm; (in CCO) 436 nm; (in Cc1ccccc1) 435 nm; (in ClCCl) 437 nm.
Under “in CC#N”, `COc1ccc(-n2nc(C#N)c(N3CCN(c4ccccn4)CC3)n2)cc1` gave an absorption maximum of 321 nm.
Take `CN(C)c1ccc(C2=Nc3sc4cc(F)ccc4[n+]3[B-](F)(F)O2)cc1`: the absorption maximum was found to be 425 nm (in C1CCOC1); 422 nm (in CC#N); 426 nm (in CC(C)=O); 423 nm (in Cc1ccccc1); 425 nm (in ClCCl).
In the case of `CN(C)c1ccc(C#Cc2ccc3ccc4ccc(C#Cc5ccc(N(C)C)cc5)c5ccc2c3c45)cc1`, the absorption maximum is given as 429 nm (in C1COCCO1); 431 nm (in CC(C)=O); 421 nm (in CCCCCC); 429 nm (in CCCCCCO); 426 nm (in CCO); 428 nm (in CCOC(C)=O). The absorption maximum (in CO) is on record as 427 nm, the absorption maximum (in Cc1ccccc1) worked out at 429 nm and the absorption maximum (in ClCCl) is on record as 429 nm.
Compound `COC(=O)c1ccc(/C=C2\N=C(c3ccccc3)OC2=O)cc1` yielded an absorption maximum (in C1COCCO1) of 370 nm.
On to `COc1ccc(-n2nc(C#N)c(NC3CCCCC3)n2)cc1`, for which the absorption maximum is listed as 330 nm (in CC#N); 325 nm (in CCCCCC); 333 nm (in CCO); 336 nm (in CN(C)C=O); 330 nm (in ClC(Cl)Cl).
In the case of `Cc1cccc(C)c1-c1cc2c(C)c3c4cc5nc6cc7c(cc6nc5cc4c3c(C)c2cc1-c1c(C)cccc1C)c1c(C)c2cc(-c3c(C)cccc3C)c(-c3c(C)cccc3C)cc2c(C)c71`, the absorption maximum (in ClC(Cl)Cl) came out at 503 nm.
For `CN(C)c1ccc(C#Cc2ccc(-c3nc(C#N)c(C#N)n3C)cc2)cc1`, the absorption maximum runs as follows: (in C1CCCCC1) 372 nm; (in CC#N) 357 nm; (in CO) 356 nm; (in ClC(Cl)Cl) 369 nm.
Where the note is “in ClCCl”, `Cc1ccc(C(=O)NC(C)(C)C)c2c1ccc1c3ccccc3c3ccccc3c12` came in with an absorption maximum of 335 nm.
In the case of `c1ccc(-c2nc(-c3cccs3)[nH]c2-c2ccccc2)cc1`, for the setting “in CC#N”, the absorption maximum stood at 317 nm.
As to `O=c1[nH]c2[n+](c3ccccc13)[B-](F)(F)Oc1ccccc1-2`, the absorption maximum by setting is: (in CC#N) 343 nm; (in Cc1ccccc1) 354 nm.
`CC1=C(C#Cc2ccccc2)C(C)=[N+]2C1=C(c1ccccc1)c1c(C)c(C#Cc3ccccc3)c(C)n1[B-]2(F)F` registered an absorption maximum (in C1CCOC1) of 573 nm and an absorption maximum (in ClCCl) of 561 nm.
With `CN1CCN(c2ccc3c4c(cccc24)C(=O)c2ccccc2-3)CC1`, the absorption maximum is, setting by setting: (in C1CCCCC1) 428.2 nm; (in C1CCOC1) 446 nm; (in C1COCCO1) 442.8 nm; (in CC1COC(=O)O1) 459 nm; (in CC#N) 453.8 nm; (in CC(C)=O) 449.6 nm. For the same compound, the absorption maximum is, setting by setting: (in CCCCCCCCO) 451 nm; (in CCCCCO) 456.4 nm; (in CCCCO) 454.6 nm; (in CCCO) 455.4 nm; (in CCO) 455.4 nm; (in CCOC(C)=O) 443 nm. Also, the absorption maximum is listed as 454.4 nm (in CN(C)C=O); 456.4 nm (in CO); 460.8 nm (in CS(C)=O); 443.8 nm (in Cc1ccccc1); 455.4 nm (in ClC(Cl)Cl).
Regarding `[NH3+]c1cc([NH3+])cc(-c2[nH+]c3ccccc3s2)c1`, the absorption maximum (in O) came out at 328 nm.
In the case of `COc1cccc2cc(-c3cc4cccc(OC)c4oc3=O)oc12`, the absorption maximum is on record as 352 nm (in CC#N); 351 nm (in CCOC(C)=O); 359 nm (in CS(C)=O); 358 nm (in Cc1ccccc1); 363 nm (in O).
Turning to `CCN(CC)c1ccc(/C=N/C(C#N)=C(C#N)/N=C/c2ccc(N(CC)CC)cc2O)c(O)c1`, the absorption maximum by setting is: (in CC#N) 565 nm; (in CN(C)C=O) 571 nm; (in ClCCl) 570 nm.
As for `c1ccc(-c2oc(-c3ccccc3)c3ccccc23)cc1`, the absorption maximum reads like this: (in C1CCCCC1) 411 nm; (in C1CCOC1) 413 nm; (in CC#N) 411 nm; (in CCO) 411 nm; (in CN(C)C=O) 415 nm; (in CS(C)=O) 416 nm. Besides, under “in Cc1ccccc1”, the absorption maximum amounted to 414 nm.
Consider `Cc1ccc(-c2ccc3ccc4cc(C(C)(C)C)cc5ccc2c3c45)cc1`, for which the absorption maximum was 342 nm (in C1CCOC1) and 342 nm (in ClCCl).
Under “in CO”, `COc1ccc(-c2nc(-c3ccc(C#N)cc3)[nH]c2-c2ccc(OC)cc2)cc1` yielded an absorption maximum of 354 nm.
`COc1ccc(-c2c3cc4ccccc4cc3c(C#Cc3ccccc3)c3cc4cc(C)sc4cc23)cc1` came in with an absorption maximum (in ClCCl) of 580 nm.
`N#Cc1nn(-c2c(Cl)cccc2Cl)nc1N1CCCC1`: the absorption maximum (in CC#N) is 317 nm.
Take `Cc1cc(C)c(C2=C3C=C(/C=C/C(=O)OC(C)(C)C)C=[N+]3[B-](F)(F)n3c2ccc3N2CCCC2)c(C)c1`: the absorption maximum (in ClCCl) came to 479 nm.
Regarding `O=[N+]([O-])c1cccs1`, the absorption maximum (in CO) was found to be 308 nm and the absorption maximum (in O) came out at 318 nm.
Take `COc1ccc(/C=C/c2cc(/C=C/c3ccc(OC)cc3)nc(/C=C/c3ccccc3)n2)cc1`: where the note is “in ClCCl”, the absorption maximum is listed as 369 nm.
The compound `C[Si](C)(c1cccc2cc3ccccc3cc12)[Si](C)(C)c1cccc2cc3ccccc3cc12` gave an absorption maximum (in C1CCCCC1) of 385.82 nm.
The compound `COc1ccc(-c2csc(/C(C#N)=C/c3ccc([N+](=O)[O-])cc3)n2)cc1` had an absorption maximum (in CC#N) of 399 nm.
For the setting “in ClCCl”, `COC(=O)[C@H](Cc1ccccc1)Nc1c(C(C)=O)c(=O)oc2cc(N(C)C)ccc12` had an absorption maximum of 373 nm.
For the compound `CN(C)CCN(Cc1c2ccccc2c(CN(CCN(C)C)c2ccc([N+](=O)[O-])cc2[N+](=O)[O-])c2ccccc12)c1ccc([N+](=O)[O-])cc1[N+](=O)[O-]`, the absorption maximum is, setting by setting: (in C1CCCCC1) 340 nm; (in C1CCOC1) 351 nm; (in CC#N) 347 nm; (in CC(C)=O) 352 nm; (in CCO) 341 nm; (in CN(C)C=O) 340 nm. For the same compound, the absorption maximum is reported as 341 nm (in CO) and 342 nm (in ClC(Cl)Cl).
Take `N#Cc1c(-c2ccccc2)cc(N2c3ccccc3Oc3ccccc32)cc1-c1ccccc1`: under “in C1CCCCC1”, the absorption maximum was found to be 398 nm.
